In patent US20250122253A1, “REGULATING MICROTUBULE DYNAMICS AS A THERAPEUTIC TARGET FOR NERVE REPAIR” (City University of Hong Kong, priority 2023, published 2025):

Tested on: acetylated tubulin
Assay: Western blot of acetylated tubulin/total tubulin in sciatic nerve segments 0-6 mm distal to the crush site
Assay type: in vivo, mice
Conditions: regenerating axons of sciatic nerves 3 days post-injury
Procedure: Ipsilateral L4/5 DRG neurons were harvested at various time points following sciatic nerve injury as indicated. Sciatic nerves were harvested 3 days after crush injury and segmented into 0-6 mm distal to the crush site. Each protein sample was pooled from 3 mice. DRG neurons and segmented sciatic nerves were mechanically dissociated with protein lysis buffer, and subjected to measurement of protein concentration using protein BCA assay (Pierce). Protein lysate (30 μg) was separated on 4-12% NuPAGE Tris-Glycine precast gel (Invitrogen). Protein was then transferred onto a PVDF membrane (Bio-Rad) and blocked with 5% non-fat milk (Bio-Rad) in TBS-T. The membrane was incubated with anti-FMN2 (1:500; ProteinTech), anti-phosphorylated HDAC5 (1:500, ThermoFisher), anti-HDAC5 (1:500, Novus Biologicals), anti-acetylated tubulin (1:10,000; Sigma-Aldrich), anti-NeuN (1:500; Millipore), anti-SOX10 (1:500; Abcam), anti-IBA-1 (1:1,000; Wako), anti-GFP (1:1,000; Cell Signaling), and anti-GAPDH antibodies (1:2,000; ProteinTech) as loading controls. The membrane was incubated with secondary antibody conjugated with horseradish peroxidase (1:2,000; Thermo-Fisher). Signals were detected using West Femto Maximum Sensitivity Substrate Kit (Thermo Scientific). […] Band intensities were measured using Image Lab software (Bio-Rad). […]

Cc1cc(C)cc(OCC2CNC(=O)O2)c1 (stereo not shown) [metaxalone]
tubulin acetylation: reduction of tubulin acetylation
